In publication PMC8669712, “G Protein-Coupled Receptor GPR35 Suppresses Lipid Accumulation in Hepatocytes” (ACS Pharmacology & Translational Science, 2021):
“And” between values parts separate entries of the source, which are not always exact repeats. Identical values can stand only once. Like-named read-outs stand apart in the source and are kept apart here. *1 amine or outer side, *2 acyl side, *3 side chain or, on linkers, in order; H or OH if unused. Where a SMILES comes first, the peptide text is derived from it. Bridges are numbered along the chain shown (N, C = ends). [ ]: non-standard residue; d: D form. The star is where a group is joined. Leu(3R-OH,Nα-propionyl) = CCC(=O)N[C@H](C(=O)*)[C@H](O)C(C)C; X1 = CC(C)[C@@H](O[*:3])[C@H](N[*:1])C(=O)[*:2]; NMeT = CN[C@H](C(=O)O)[C@@H](C)O; dPhLac = O=C(O)[C@H](O)Cc1ccccc1; NMeA = CN[C@@H](C)C(=O)O; NMeDha = C=C(NC)C(=O)O

Assays:
HepG2 cells [1] = assay: Oil Red O staining of LXR (T0901317)-induced lipid accumulation in HepG2 cells; format: cell-based, human; conditions: 4 × 10^–6 M, 48 h
Protocol: Human hepatocellular carcinoma HepG2 cells were grown in Minimum Essential Medium (MEM) supplemented with 10% fetal bovine serum (FBS), 2 mM L-glutamine, 1× non-essential amino acid, 1 mM sodium pyruvate, and 1× penicillin/streptomycin. Materials for cell culture were all from Sigma-Aldrich (St. Louis, MO) or Thermo Fisher Scientific (Waltham, MA). Cells were incubated in a humidified CO2 incubator at 37 °C. […] Cells were seeded onto a 12-well plate (1 × 10^5 cells/well) for 24 h prior to drug treatment. […] Lipid accumulation was measured by Oil Red O staining.

[2] = test system: GPR35 knock-out clones of HepG2 cells; assay: Oil Red O lipid accumulation in GPR35 knock-out clones of HepG2 cells; format: cell-based, human; conditions: T0901317 4 × 10^–6 M, 48 h, higher baseline
Protocol: Human hepatocellular carcinoma HepG2 cells were grown in Minimum Essential Medium (MEM) supplemented with 10% fetal bovine serum (FBS), 2 mM L-glutamine, 1× non-essential amino acid, 1 mM sodium pyruvate, and 1× penicillin/streptomycin. Materials for cell culture were all from Sigma-Aldrich (St. Louis, MO) or Thermo Fisher Scientific (Waltham, MA). Cells were incubated in a humidified CO2 incubator at 37 °C. Experiments were performed when cell confluence reached 80%. Cells were seeded onto a 12-well plate (1 × 10^5 cells/well) for 24 h prior to drug treatment. […] Expression of full-length mRNA from the GPR35 gene was eliminated using a dual synthetic gRNA/RNP approach[43] with one guide cutting the intron and one in the exon region to generate a nonfunctional GPR35 protein. The gRNAs were designed with the CRISPR Finder (Welcome Sanger Institute). […] Transfected cells were plated and analyzed for editing efficiency 24-48 h after electroporation. […] To further quantify and capture the genomic DNA deletion, PCR primers listed in Table S1 were designed to amplify the genomic DNA surrounding the target site. […] The amplified PCR products were subjected to paired-end sequencing using NextSeq500 from Illumina using paired-end chemistry with a 150-bp read length. […] The impedance was recorded using xCELLigence RTCA. […] Lipid accumulation was measured by Oil Red O staining.

[3] = test system: hepatocytes from wild-type mice; assay: Oil Red O lipid accumulation in hepatocytes from wild-type mice; format: cell-based, mouse; conditions: 48 h; for EC50: hepatocytes from wild-type mice, co-incubation with T0901317 5 × 10^–6 M, read-out: EC50 for suppression of LXR-mediated lipid accumulation
Protocol: All mice were bred as WT or homozygous onto a C57BL/6N background. Animals were cared for in accordance with national guidelines on animal experimentation. All animal experiments were conducted under a home office license held by the authors. WT, humanized GPR35a, or KO male mice at 3–4 months of age were used in this study. These mice were fed ad libitum with a standard mouse chow diet. Briefly, mouse primary hepatocytes were isolated using a two-step collagenase perfusion technique.[45] Twelve-well plates or xCELLigence E plates were coated with rat tail collagen I solution (Thermo Fisher Scientific) overnight at 37 °C and washed with PBS. Isolated primary hepatocytes were seeded onto 12-well plates (8 × 10^4 cells/well) or xCELLigence E plates (2 × 10^4 cells/well) in Wiliam’s E medium (Thermo Fisher Scientific) supplemented with 10% fetal bovine serum (FBS) and 1× penicillin/streptomycin. Cells were maintained for 7 days with a fresh medium change every other day. […] Human GPR35 activation was examined using xCELLigence RTCA assay. To access the impact of GPR35 agonists on the lipid accumulation, WT and humanized GPR35 hepatocytes were incubated with T0901317 and/or GPR35 agonists/antagonists, as indicated (in DMEM medium containing 5% FBS and 1.5% BSA) for 48 h. Alternatively, GPR35 KO hepatocytes were incubated with drugs, as indicated for 5 days. […] After each drug treatment, hepatocytes were stained with Oil Red O and quantified as described. […]
(§1) Lipid accumulation was measured by Oil Red O staining. […] After PBS washing, Oil Red O was extracted from cells using 150 μl of isopropanol and OD510 nm measured. […] These cells were then stained with Hoechst 33342 (1 μg/mL) and the fluorescence intensity of Hoechst (represents the DNA content in cells) was measured using a CLARIOstar plate reader (BMG LABTECH). Oil Red O accumulation was corrected for differences in DNA content and expressed as relative absorbency, taking the control condition (treated with vehicle only) as 1.

[4] = test system: hepatocytes from GPR35 knock-out mice; assay: Oil Red O lipid accumulation in hepatocytes from GPR35 knock-out mice
Protocol: All mice were bred as WT or homozygous onto a C57BL/6N background. Animals were cared for in accordance with national guidelines on animal experimentation. All animal experiments were conducted under a home office license held by the authors. WT, humanized GPR35a, or KO male mice at 3–4 months of age were used in this study. These mice were fed ad libitum with a standard mouse chow diet. Briefly, mouse primary hepatocytes were isolated using a two-step collagenase perfusion technique.[45] Twelve-well plates or xCELLigence E plates were coated with rat tail collagen I solution (Thermo Fisher Scientific) overnight at 37 °C and washed with PBS. […] After each drug treatment, hepatocytes were stained with Oil Red O and quantified as described. […]
as §1

[5] = test system: hepatocytes from hGPR35a-HA-expressing mice; assay: Oil Red O lipid accumulation in hepatocytes from hGPR35a-HA-expressing mice; format: cell-based, mouse; conditions: T0901317 8 × 10^–6 M
Protocol: All mice were bred as WT or homozygous onto a C57BL/6N background. Animals were cared for in accordance with national guidelines on animal experimentation. All animal experiments were conducted under a home office license held by the authors. WT, humanized GPR35a, or KO male mice at 3–4 months of age were used in this study. These mice were fed ad libitum with a standard mouse chow diet. Briefly, mouse primary hepatocytes were isolated using a two-step collagenase perfusion technique.[45] Twelve-well plates or xCELLigence E plates were coated with rat tail collagen I solution (Thermo Fisher Scientific) overnight at 37 °C and washed with PBS. Isolated primary hepatocytes were seeded onto 12-well plates (8 × 10^4 cells/well) or xCELLigence E plates (2 × 10^4 cells/well) in Wiliam’s E medium (Thermo Fisher Scientific) supplemented with 10% fetal bovine serum (FBS) and 1× penicillin/streptomycin. Cells were maintained for 7 days with a fresh medium change every other day. […] Human GPR35 activation was examined using xCELLigence RTCA assay. To access the impact of GPR35 agonists on the lipid accumulation, WT and humanized GPR35 hepatocytes were incubated with T0901317 and/or GPR35 agonists/antagonists, as indicated (in DMEM medium containing 5% FBS and 1.5% BSA) for 48 h. Alternatively, GPR35 KO hepatocytes were incubated with drugs, as indicated for 5 days. In the T0901317 pretreatment model, human GPR35 hepatocytes were stimulated with T0901317 for 2 days and then further treated with lodoxamide for a further 3 days. After each drug treatment, hepatocytes were stained with Oil Red O and quantified as described. Each experiment was repeated at least three times.
Lipid accumulation was measured by Oil Red O staining. A working solution of Oil Red O was prepared, as described with modification.[46] After drug treatment, cells were washed with PBS and fixed with formalin solution for 1 h at 4 °C. Then, cells were stained with Oil Red O working solution for 10 min at room temperature. After PBS washing, Oil Red O was extracted from cells using 150 μl of isopropanol and OD510 nm measured. After the lipid extraction, cells were further soaked in PBS overnight at 4 °C. These cells were then stained with Hoechst 33342 (1 μg/mL) and the fluorescence intensity of Hoechst (represents the DNA content in cells) was measured using a CLARIOstar plate reader (BMG LABTECH). Oil Red O accumulation was corrected for differences in DNA content and expressed as relative absorbency, taking the control condition (treated with vehicle only) as 1.

mouse GPR35 = mouse GPR35 (Mus musculus, UniProt Q9ES90); assay: β-arrestin-based interaction assay, agonist potency at mouse GPR35; format: cell-based
Chain of mouse GPR35 (Q9ES90 whole entry): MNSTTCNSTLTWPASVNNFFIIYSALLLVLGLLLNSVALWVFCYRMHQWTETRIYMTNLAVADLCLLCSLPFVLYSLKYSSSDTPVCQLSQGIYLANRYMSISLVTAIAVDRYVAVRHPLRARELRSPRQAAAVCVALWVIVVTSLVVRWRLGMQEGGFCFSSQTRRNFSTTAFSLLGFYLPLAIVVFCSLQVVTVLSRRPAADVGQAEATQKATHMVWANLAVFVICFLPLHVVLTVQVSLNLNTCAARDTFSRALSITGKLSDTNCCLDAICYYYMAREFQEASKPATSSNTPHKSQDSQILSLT

HepG2 cells [6] = assay: Label-free cellular impedance assay (xCELLigence) in HepG2 cells; format: cell-based, human; conditions: for effect of signaling pathway inhibitor pretreatment on the impedance response to lodoxamide: HepG2 cells, FR900359 1 × 10^–7 M, Pertussis toxin 100 ng/mL, Y27632 1 × 10^–5 M
Protocol: HepG2 cells were seeded onto xCELLigence E plates (2 × 10^4 cells/well) and incubated for 24 h at 37 °C. To evaluate GPR35 activation and its downstream G protein signaling, HepG2 cells or primary mouse hepatocytes were exposed to GPR35 antagonists or G protein inhibitors 1 h (overnight for Pertussis toxin) prior to GPR35 agonist stimulation. After the addition of GPR35 agonist or vehicle control, the impedance (represented as “cell index”) was recorded every 30 s over a 2 h period using xCELLigence RTCA (Agilent). Each experiment was repeated at least three times.

[7] = test system: GPR35 genome-edited HepG2 clones; assay: Label-free cellular impedance assay in GPR35 genome-edited HepG2 clones 19 and 27; format: cell-based, human
Description: Expression of full-length mRNA from the GPR35 gene was eliminated using a dual synthetic gRNA/RNP approach[43] with one guide cutting the intron and one in the exon region to generate a nonfunctional GPR35 protein. The gRNAs were designed with the CRISPR Finder (Welcome Sanger Institute). HepG2 cells were transfected with the Neon Transfection System from Thermo Fisher Scientific (Waltham, MA), according to the manufacturer’s instructions. Briefly, CrRNA and tracrRNA were annealed to gRNA at 95 °C for 5 min. Next, cells were transfected with gRNA, Cas9, and the electroporation enhancer, according to the manufacturer’s instructions. All crRNAs, tracrRNA, SpCas9 nuclease, and the electroporation enhancer were purchased from Integrated DNA Technologies (Coralville, IA). Transfected cells were plated and analyzed for editing efficiency 24–48 h after electroporation. Single-cell clones were generated by single-cell FACS sorting. Clones were expanded and to access editing efficiency, genomic DNA from cell clones was extracted and subjected to PCR to confirm the genome deletion. To further quantify and capture the genomic DNA deletion, PCR primers listed in Table S1 were designed to amplify the genomic DNA surrounding the target site. The PCR primers were linked to the sequences of the Illumina Nextera adapters. The amplified PCR products were subjected to paired-end sequencing using NextSeq500 from Illumina using paired-end chemistry with a 150-bp read length. In addition, mRNA from KO clones was isolated and subjected to RT-PCR. To further confirm the abrogation of GPR35 activation in CRISPR KO clones, KO cells were seeded onto xCELLigence E plates (2 × 10^4 cells/well) for 24 h at 37 °C prior to the treatment of GPR35 agonists. The impedance was recorded using xCELLigence RTCA. […]
HepG2 cells were seeded onto xCELLigence E plates (2 × 10^4 cells/well) and incubated for 24 h at 37 °C. […] After the addition of GPR35 agonist or vehicle control, the impedance (represented as “cell index”) was recorded every 30 s over a 2 h period using xCELLigence RTCA (Agilent). […]

human GPR35a = human GPR35a (Homo sapiens, UniProt Q9HC97); assay: β-arrestin-based interaction assay, agonist potency at human GPR35a; format: cell-based
Chain of human GPR35a (Q9HC97 whole entry): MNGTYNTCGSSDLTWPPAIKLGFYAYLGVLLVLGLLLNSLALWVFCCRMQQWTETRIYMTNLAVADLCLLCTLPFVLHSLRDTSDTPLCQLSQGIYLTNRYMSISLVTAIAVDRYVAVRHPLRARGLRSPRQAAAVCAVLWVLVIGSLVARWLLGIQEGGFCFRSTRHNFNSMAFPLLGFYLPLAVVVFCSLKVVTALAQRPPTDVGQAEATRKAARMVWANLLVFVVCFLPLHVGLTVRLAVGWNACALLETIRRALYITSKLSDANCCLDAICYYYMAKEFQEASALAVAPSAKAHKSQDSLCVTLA

## O=S(=O)(c1ccccc1)N(CC(F)(F)F)c1ccc(C(O)(C(F)(F)F)C(F)(F)F)cc1 [T0901317, N-(2,2,2-trifluoroethyl)-N-[4-[2,2,2-trifluoro-1-hydroxy-1-(trifluoromethyl)ethyl]phenyl]benzenesulfonamide]
HepG2 cells [1]
  deposition of triglycerides and other lipids (Oil Red O): substantially increased
[2]
  lipid accumulation on LXR activation in GPR35 knock-out clones: still able to promote lipid accumulation
[3]; wild-type mice, 5 × 10^–6 M
  lipid accumulation in mouse hepatocytes: able to promote lipid accumulation
[4]; equivalent time of exposure as in wild-type hepatocytes (48 h)
  effect of T0901317 on lipid accumulation in hepatocytes from GPR35 knock-out mice: modest
[5]
  lipid accumulation (Oil Red O) in hepatocytes from hGPR35a-HA-expressing mice: clear increase in lipid accumulation

## CCCOc1ccccc1-c1nc2nn[nH]c2c(=O)[nH]1 [zaprinast]
Mouse GPR35
  EC50: 661 nM
HepG2 cells [6]; 1 × 10^–5 M
  impedance signal in parental HepG2 cells: produced positive signals
[7]; 1 × 10^–5 M
  impedance signal in GPR35 genome-edited clones 19 and 27: not in either clone 19 or 27

## C=C1C(=O)N[C@@H](C)C(=O)N(C)[C@@H](C)C(=O)N[C@@H]([C@H](OC(=O)[C@@H](NC(=O)CC)[C@H](O)C(C)C)C(C)C)C(=O)N(C)[C@@H]([C@@H](C)OC)C(=O)O[C@H](C(C)C)[C@H](NC(C)=O)C(=O)O[C@H](Cc2ccccc2)C(=O)N1C [FR900359] (Ac-[X1][dPhLac][NMeDha]A[NMeA][X1](Leu(3R-OH,Nα-propionyl))[NMeT](Me); ester 1-C)
HepG2 cells [6]
  effect of signaling pathway inhibitor pretreatment on the impedance response to lodoxamide: without effect

## Nc1ncnc2c1ncn2[C@@H]1O[C@H](COP(=O)(O)OP(=O)(O)OP(=O)(O)O)[C@@H](O)[C@H]1O [ATP]
[7]; P2Y purinoceptor stimulus, control of responsiveness
  impedance response to ATP in wild-type HepG2 cells and GPR35 genome-edited clones: enhanced electrical conductance

## CCCCc1cc2c(=O)cc(C(=O)O)[nH]c2c2c(=O)cc(C(=O)O)[nH]c12 [bufrolin, 6-butyl-4,10-dioxo-1,7-dihydro-1,7-phenanthroline-2,8-dicarboxylic acid]
Human GPR35a; log ratio of potency at human GPR35a over mouse GPR35
  ratio (log) (H/M): 1.02 ± 0.06
Human GPR35a; β-arrestin-based interaction assay, read-out: human GPR35a, pEC50 (converted)
  EC50: 14.8 nM
Mouse GPR35; bufrolin versus lodoxamide
  fold more potent than lodoxamide at mouse GPR35: more than 10 fold
Mouse GPR35; mouse versus human GPR35
  fold lower potency at mouse GPR35 than at human GPR35: ~10 fold
Mouse GPR35; read-out: EC50 at the mouse GPR35
  EC50: < 100 nM
Mouse GPR35; β-arrestin-based interaction assay, read-out: mouse GPR35, pEC50 (converted)
  EC50: 155 nM
[3]; Mus musculus, Hepatocyte
  EC50: 78.7 nM
[3]
  EC50: 79 nM and ~80 nM
[4]; treatment for 5 days
  suppression of lipid accumulation induced by T0901317 in hepatocytes from GPR35 knock-out mice: did not suppress lipid accumulation

## C[C@@H](N)[C@H]1CC[C@H](C(=O)Nc2ccncc2)CC1 [Y27632]
HepG2 cells [6]
  effect of signaling pathway inhibitor pretreatment on the impedance response to lodoxamide: all but eliminated

## Pertussis toxin
HepG2 cells [6]
  effect of signaling pathway inhibitor pretreatment on the impedance response to lodoxamide: small although a statistically nonsignificant reduction
